Laboratory results reported in patent publication US12161669B2, “Compositions and methods for cell targeting therapies” (UMC UTRECHT HOLDING B.V., priority 2017, dated 2024).
pKd: −log10 of the molar value.

Legend:
CD277 [1] = experiment: FRAP of CD277-emGFP membrane mobility in HEK 293 cells; type: cell-based; details: 293 HEK cells; for CD277 membrane mobility (immobile fraction, FRAP): single agent
Method: FRAP analysis was performed as previously described (Harly et al., 2012, Sandstrom et al., 2014). In brief, HEK293FT cells expressing either EmGFP-fused CD277 were laid on m-slides (Ibidi) and analyzed using a Nikon A1 RS confocal microscope (60×NA 1.40 oil immersion objective). Selected rectangular areas were photobleached for 500 ms by using full power of laser intensity (>90% of loss of fluorescence). Images were collected every 5 s, before (30 s) and after (120 s) bleaching using low laser intensity. Images were analyzed with Metamorph 7.5 (Molecular Devices, Universal Imaging) and NIS (Nikon) imaging software. The resulting curves were fitted using one-phase exponential equations.

RhoB GTPase = target: T1, RhoB GTPase (Homo sapiens, UniProt P62745); experiment: Biolayer interferometry of RhoB binding to BTN3A1 (CD277) intracellular domains; details: for kd (1/s) / kd(1/Ms) / pKd: BLI, 1:1 binding model; for pKd: RhoB immobilized on Ni-NTA biosensor, cHDMAPP at 1:1 where named; for RhoB binding to recombinant CD277 intracellular domain constructs: without phosphoantigen
T1 construct: The full length RhoB protein was cloned into the pET 28a vector; thrombin cleavage site (C); made in house; host or cells: Escherichia coli BL21
T1 sequence (O00481 272-513 partner limits assumed): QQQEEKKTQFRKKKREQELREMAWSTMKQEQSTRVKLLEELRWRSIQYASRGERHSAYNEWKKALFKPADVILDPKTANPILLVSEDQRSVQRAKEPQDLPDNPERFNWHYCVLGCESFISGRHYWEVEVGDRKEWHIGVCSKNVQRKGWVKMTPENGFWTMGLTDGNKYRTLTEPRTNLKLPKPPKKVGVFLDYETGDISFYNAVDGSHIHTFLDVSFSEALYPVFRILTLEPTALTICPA
T1 sequence (P62745 1-192 limits assumed): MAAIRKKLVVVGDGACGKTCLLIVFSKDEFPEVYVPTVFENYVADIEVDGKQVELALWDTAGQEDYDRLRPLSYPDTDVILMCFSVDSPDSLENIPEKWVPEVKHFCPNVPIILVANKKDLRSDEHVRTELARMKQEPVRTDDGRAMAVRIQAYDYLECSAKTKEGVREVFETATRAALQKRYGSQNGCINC
Method: To determine whether CD277 exists as a homodimer when expressed in a cellular context, and to study RhoB-CD277 interactions at even higher resolution, close interactions by utilizing fluorescence resonance energy transfer (FRET) were examined. Flow cytometry FRET measurements were performed on ABP-sensitive HEK 293 cells, by either overexpressing FRET compatible fusion proteins or labeling endogenous proteins with antibodies coupled to FRET-compatible fluorochromes. […] Biolayer Interferometry (BLI) was used to formally define a possible docking site for RhoB on the intracellular domain of CD277.
The interactions between RhoB and BTN3A1 full-length intracellular domain (BFI) or BTN3A1 B30.2 domain were measured using Biolayer interferometry (BLItz, FortéBio). The BLI buffer used in baseline equilibration and the dissociation step was prepared with 10 mM Hepes pH7.2, 150 mM NaCl, 0.02% azide, 5 mM MgCl2, 4 mM BME. RhoB, at a concentration of 2 mg/ml, was immobilized on the Ni-NTA biosensor hydrated with the BLI buffer using the basic kinetics method with the following parameters: 30 s for baseline, 300 s for association and 300 s for dissociation. The RhoB-mounted biosensor was then blocked by 1 mg/ml BSA and equilibrated with the BLI buffer using a similar method with the following parameters: 30 s for baseline, 120 s for association and 120 s for dissociation. The buffer run served as a reference for the subsequent experiments. […] The ratio between cHDMAPP and BFI or B30.2 domain was kept at 1:1 for these measurements. The rate and affinity constants for binding interactions were analyzed by Biaevulation (Biacore Life Sciences). The data was truncated to 180 s and the ka and kd were fitted simultaneously using 1:1 binding with drift baseline model.

CD277 [2] = experiment: Flow cytometry FRET between BODIPY FL-stained membrane and anti-CD277 mAbs (CD277 conformational change), HEK 293 cells; type: cell-based; details: with ABP
Method: Conformational change of BTN3 molecule was determined similarly as described in ([…] et al., 2001). Cells were labeled with 5 ug/ml BODIPY-FL DPHE (donor) (Life Technologies) for 10 minutes on ice and then 10 minutes at 37 C, then washed extensively with ice-cold PBS. Cells were subsequently labeled with mouse anti-CD277 mAbs (either clone #20.1 or #103.2) and Alexa594-conjugated Goat anti-Mouse Fab fragments (Jackson ImmunoResearch). After washing, cells were resuspended in ice cold PBS and measured immediately using a FACS Canto-II flowcytometer (BD). FRET efficiency was calculated from the fractional decrease of the donor fluorescence in the presence of the acceptor.

LCL 48 cells = experiment: IFNγ by Vγ9Vδ2 TCR+ T cells against Rho-modulator pretreated EBV-LCL 48; type: cell-based; details: target cell pretreatment with Rho inhibitor, in combination with pamidronate or IPP
Method: (§1) The impact of RhoB GTPase activity on Vγ9Vδ2 TCR+ T cell activation was assessed by […] different tumor cell lines with either the Rho GTPase activator calpeptin or inhibitor C3 transferase. […] To specify that enzymatic activity of RhoB regulates tumor cell recognition by Vγ9Vδ2 TCR+ T cells, we transfected HEK 293 cells with wildtype or dominant negative form corresponding to the GDP-bound state (RhoB-DN), or with the constitutively active form corresponding to the GTP-bound form (RhoB-CA) of RhoB (Kamon et al., 2006) and used them as target cells for Vγ9Vδ2 TCR+ T cells (FIG. 4E).
(§2) Alternatively, Vγ9Vδ2 TCR-transduced T cells and target cells were cocultured as above in round-bottom 96-well plates, and IFNγ levels in supernatants were measured by ELISA. Where indicated, target cells were pretreated with pamidronate (100 μM), IPP (15 μM), FTI (10 μM), GGTI (50 μM), calpeptin (2 μg/ml) or C3 transferase (20 μg/ml) prior to coincubation. For testing stimulation of WT1 αβTCR-transduced T cells, the HLA-A2+ cell lines EBV-LCL 48 and MZ1851RC were pulsed with 10 μM WT1126−134 peptide.

CD277 and F-actin = experiment: Colocalization of CD277 and F-actin in HEK 293 cells; type: cell-based
Method: To determine colocalization between BTN3 molecules and the actin cytoskeleton, HEK 293 cells were grown onto poly-L-lysin-coated coverslips and pretreated with either calpeptin (2 μg/ml) or C3 transferase (20 μg/ml) prior to treating samples with pamidronate Cells were fixed, permeabilized and BTN3 and F-actin were stained with DyLight 680-conjugated BTN3 antibody (clone BT3.1, Novus Biologicals) and Fluorescein-coupled phalloidin (Sigma), respectively. The correlation coefficient between BTN3 and F-actin signal was determined as a measure of colocalization using Volocity software.

EBV-LCL 93 cells = experiment: IFNγ by Vγ9Vδ2 TCR+ T cells against Rho-modulator pretreated EBV-LCL 93; type: cell-based; details: target cell pretreatment with Rho activator, in combination with pamidronate or IPP
Method: as §1, §2

Row | kd (1/s) (RhoB GTPase) | kd(1/Ms) (RhoB GTPase) | pKd (RhoB GTPase) | RhoB binding to recombinant CD277 intracellular domain constructs (RhoB GTPase) | Compound | CD277 membrane mobility (immobile fraction, FRAP) (CD277 [1]) | further results
1 |  |  |  |  | O=P(O)(O)C(O)(Cn1ccnc1)P(=O)(O)O [zoledronate, zoledronic acid monohydrate] | decreased CD277 membrane mobility | 
2 | 0.206 s⁻¹ | 2020 M⁻¹ s⁻¹ | 3.99 | significantly reduced | RhoB-B30.2: interaction of RhoB with recombinant CD277 B30.2 domain lacking the N terminal connector region |  | 
3 |  |  |  |  | C/C(=C\CCP(=O)(O)OP(=O)(O)O)CO [cHDMAPP, (2E)-1-hydroxy-2-methylpent-2-enyl-pyrophosphonate] |  | RhoB binding to BFI in the presence of soluble phosphoantigen (RhoB GTPase; phosphoantigen 1:1 with BFI): almost completely abolished
4 |  |  |  |  | C3 transferase |  | effect on ABP-driven conformational changes of the CD277 homodimer (CD277 [2]): did not prevent; activation of Vγ9Vδ2 TCR+ T cells by LCL 48 cells (IFNγ) (LCL 48 cells): significantly reduced activation; effect on ABP-induced CD277-actin segregation (CD277 and F-actin; pretreatment before pamidronate): prevented ABP-induced CD277-actin segregation; effect on ABP-induced immobilization of CD277 (CD277 [1]; together with zoledronate): counteracted this ABP-effect
5 | 0.04351 s⁻¹ | 2200 M⁻¹ s⁻¹ | 4.71 | detected | RhoB-BFI: interaction of RhoB GTPase with recombinant full length BTN3A1 intracellular domain (BFI) |  | 
6 |  |  |  |  | CCCC[C@@H](C=O)NC(=O)[C@H](CC(C)C)NC(=O)OCc1ccccc1 [calpeptin] | induced immobilization of CD277 to similar levels as those of ABP treatment alone | recognition of EBV-LCL 93 cells by Vγ9Vδ2 TCR+ T cells (IFNγ) (EBV-LCL 93 cells): significantly sensitized; colocalization between CD277 and F-actin (CD277 and F-actin; single agent vs medium): reduced tantalization between CD277 and F-actin to comparable levels observed with ABP treatment
